{"source": "patent US7998987B2", "about": "“Inhibitors of c-Met and uses thereof” (Vertex Pharmaceuticals Incorporated, priority 2005, dated 2011)", "data": [{"target": "c-Met (Homo sapiens, UniProt P08581)", "sequence (P08581 25-1390)": "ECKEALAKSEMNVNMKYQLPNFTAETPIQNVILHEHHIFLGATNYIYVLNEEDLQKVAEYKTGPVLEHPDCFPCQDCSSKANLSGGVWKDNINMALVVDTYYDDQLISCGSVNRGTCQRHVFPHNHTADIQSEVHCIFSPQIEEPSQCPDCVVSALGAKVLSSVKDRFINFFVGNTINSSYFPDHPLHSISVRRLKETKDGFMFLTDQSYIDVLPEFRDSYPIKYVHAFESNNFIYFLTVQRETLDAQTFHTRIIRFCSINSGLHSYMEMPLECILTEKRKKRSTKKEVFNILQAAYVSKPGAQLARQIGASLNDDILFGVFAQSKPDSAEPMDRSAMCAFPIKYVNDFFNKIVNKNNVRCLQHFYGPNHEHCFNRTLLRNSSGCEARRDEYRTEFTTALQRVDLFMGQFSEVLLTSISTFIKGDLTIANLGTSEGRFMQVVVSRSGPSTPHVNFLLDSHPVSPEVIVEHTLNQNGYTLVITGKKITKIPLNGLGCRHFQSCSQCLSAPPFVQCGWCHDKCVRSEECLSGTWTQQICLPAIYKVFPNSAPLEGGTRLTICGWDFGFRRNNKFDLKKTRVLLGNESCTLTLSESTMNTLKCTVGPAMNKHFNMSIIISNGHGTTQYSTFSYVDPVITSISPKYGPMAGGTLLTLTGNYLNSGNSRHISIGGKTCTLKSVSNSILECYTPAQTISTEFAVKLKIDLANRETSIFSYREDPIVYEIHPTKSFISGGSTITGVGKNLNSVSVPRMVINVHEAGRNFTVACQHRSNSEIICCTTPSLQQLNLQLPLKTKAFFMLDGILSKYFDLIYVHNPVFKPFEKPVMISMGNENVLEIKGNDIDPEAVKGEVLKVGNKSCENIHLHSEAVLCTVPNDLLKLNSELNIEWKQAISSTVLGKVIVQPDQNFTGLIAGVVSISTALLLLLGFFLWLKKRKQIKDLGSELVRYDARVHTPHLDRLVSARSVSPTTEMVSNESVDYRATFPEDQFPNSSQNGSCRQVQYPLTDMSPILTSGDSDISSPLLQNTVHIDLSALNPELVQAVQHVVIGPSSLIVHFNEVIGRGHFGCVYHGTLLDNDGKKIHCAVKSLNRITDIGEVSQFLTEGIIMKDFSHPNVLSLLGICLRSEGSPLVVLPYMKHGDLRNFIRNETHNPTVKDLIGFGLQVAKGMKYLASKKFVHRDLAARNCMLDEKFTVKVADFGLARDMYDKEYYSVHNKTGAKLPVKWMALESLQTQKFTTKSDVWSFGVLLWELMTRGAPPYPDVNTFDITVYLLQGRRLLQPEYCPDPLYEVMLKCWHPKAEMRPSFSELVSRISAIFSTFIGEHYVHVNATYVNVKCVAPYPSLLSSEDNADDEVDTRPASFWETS", "experiment": "Ki determination for the inhibition of c-Met kinase activity (standard coupled enzyme system)", "format": "biochemical", "conditions": "coupled enzyme system, 200 μM ATP, 80 nM c-Met, 30° C.; read-out: c-Met Ki", "procedure,_shortened": "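Continuous coupled-enzyme (PK/LDH, NADH depletion) assay with 80 nM c-Met, 200 μM ATP and 10 μM polyGluTyr in 100 mM HEPES pH 7.5, 10 mM MgCl2, 1.5% DMSO at 30 °C.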", "units": {"Ki": "nM"}, "values": [{"smiles": "Clc1cccc(Nc2ccc3nnc(Cn4ccc5cccnc54)n3n2)c1", "note": "[Compound 462]", "Ki": "> 2000"}, {"smiles": "Clc1cccc(Nc2ccc3nnc(Cn4ccc5cncnc54)n3n2)c1", "note": "[Compound 463]", "Ki": "> 2000"}, {"smiles": "Clc1cccc(Nc2ccc3nnc(CNc4cccc5[nH]ccc45)n3n2)c1", "note": "[Compound 464]", "Ki": "> 2000"}, {"smiles": "Clc1cccc(Nc2ccc3nnc(CNc4ccc5[nH]ccc5c4)n3n2)c1", "note": "[Compound 465]", "Ki": "> 2000"}, {"smiles": "Nc1cc(OCc2nnc3ccc(Nc4cccc(Cl)c4)nn23)c2ccccc2n1", "note": "[Compound 466]", "Ki": "> 2000"}, {"smiles": "NC(=O)c1ccc(NCc2nnc3ccc(Nc4cccc(Cl)c4)nn23)cc1", "note": "[Compound 467]", "Ki": "100 to 2000"}, {"smiles": "CC(=O)Nc1cccc(OCc2nnc3ccc(Nc4cccc(Cl)c4)nn23)c1", "note": "[Compound 468]", "Ki": "100 to 2000"}, {"smiles": "CC(=O)Nc1ccc(OCc2nnc3ccc(Nc4cccc(Cl)c4)nn23)cc1", "note": "[Compound 469]", "Ki": "> 2000"}, {"smiles": "NC(=O)c1ccc(OCc2nnc3ccc(Nc4cccc(Cl)c4)nn23)cc1", "note": "[Compound 470]", "Ki": "100 to 2000"}, {"smiles": "N#Cc1cccc(OCc2nnc3ccc(Nc4cccc(Cl)c4)nn23)c1", "note": "[Compound 471]", "Ki": "> 2000"}, {"smiles": "Clc1cccc(Nc2ccc3nnc(COc4ccc5nonc5c4)n3n2)c1", "note": "[Compound 472]", "Ki": "> 2000"}, {"smiles": "N#Cc1ccc(Cc2nnc3ccc(Nc4cccc(Cl)c4)nn23)cc1", "note": "[Compound 474]", "Ki": "100 to 2000"}, {"smiles": "O=[N+]([O-])c1ccc(Cc2nnc3ccc(Nc4cccc(Cl)c4)nn23)cc1", "note": "[Compound 475]", "Ki": "> 2000"}, {"smiles": "NC(=O)c1cc(Cc2nnc3ccc(Nc4cccc(Cl)c4)nn23)ccc1F", "note": "[Compound 476]", "Ki": "> 2000"}, {"smiles": "Clc1cccc(Nc2ccc3nnc(CNc4ccc5cc[nH]c5c4)n3n2)c1", "note": "[Compound 477]", "Ki": "> 2000"}, {"smiles": "NC(=O)c1ncccc1OCc1nnc2ccc(Nc3cccc(Cl)c3)nn12", "note": "[Compound 478]", "Ki": "> 2000"}, {"smiles": "COC(=O)c1ccc(NCc2nnc3ccc(Nc4cccc(Cl)c4)nn23)nc1", "note": "[Compound 479]", "Ki": "100 to 2000"}, {"smiles": "CC(=O)c1cn(Cc2nnc3ccc(Nc4cccc(Cl)c4)nn23)c2ncccc12", "note": "[Compound 480]", "Ki": "> 2000"}, {"smiles": "Oc1ccc(Cc2nnc3ccc(Nc4nc5ccc(Cl)cc5s4)nn23)cc1", "note": "[Compound 481]", "Ki": "100 to 2000"}, {"smiles": "Oc1ccc(Cc2nnc3ccc(Nc4nncs4)nn23)cc1", "note": "[Compound 482]", "Ki": "> 2000"}, {"smiles": "C[C@@H](c1ccc(O)cc1)c1nnc2ccc(Nc3nc4ccc(Cl)cc4s3)nn12", "note": "[Compound 483]", "Ki": "< 100"}, {"smiles": "C[C@@H](c1ccc(O)cc1)c1nnc2ccc(Nc3nncs3)nn12", "note": "[Compound 484]", "Ki": "100 to 2000"}, {"smiles": "Clc1cccc(Nc2ccc3nnc(Cn4cnc5ccccc54)n3n2)c1", "note": "[Compound 485]", "Ki": "> 2000"}, {"smiles": "Clc1cccc(Nc2ccc3nnc(Cn4nc(Cl)c5ccccc54)n3n2)c1", "note": "[Compound 486]", "Ki": "> 2000"}, {"smiles": "Clc1cccc(Nc2ccc3nnc(CNc4ccc5cn[nH]c5c4)n3n2)c1", "note": "[Compound 487]", "Ki": "100 to 2000"}, {"smiles": "Clc1cccc(Nc2ccc3nnc(CNc4ccc5[nH]ncc5c4)n3n2)c1", "note": "[Compound 488]", "Ki": "100 to 2000"}, {"smiles": "Clc1cccc(Nc2ccc3nnc(Cn4ncc5ccccc54)n3n2)c1", "note": "[Compound 489]", "Ki": "> 2000"}, {"smiles": "Clc1cccc(Nc2ccc3nnc(COc4c[nH]c5ccccc45)n3n2)c1", "note": "[Compound 491]", "Ki": "> 2000"}, {"smiles": "NC(c1ccc(F)cc1)c1nnc2ccc(Nc3cccc(Cl)c3)nn12", "note": "(centres unmarked) [Compound 492]", "Ki": "100 to 2000"}, {"smiles": "CC(c1ccc(F)cc1)c1nnc2ccc(Nc3cccc(Cl)c3)nn12", "note": "(centres unmarked) [Compound 493]", "Ki": "< 100"}, {"smiles": "NC(=O)c1ccc(Cc2nnc3ccc(Nc4cccc(Cl)c4)nn23)cc1", "note": "[Compound 494]", "Ki": "100 to 2000"}, {"smiles": "COc1ccc(Cc2nnc3ccc(Nc4cccc(Cl)c4)nn23)cc1C(N)=O", "note": "[Compound 496]", "Ki": "> 2000"}, {"smiles": "CCn1nccc1Nc1ccc2nnc([C@@H](C)c3ccc(O)cc3)n2n1", "note": "[Compound 497]", "Ki": "100 to 2000"}, {"smiles": "C[C@@H](c1ccc(O)cc1)c1nnc2ccc(Nc3ccncn3)nn12", "note": "[Compound 498]", "Ki": "100 to 2000"}, {"smiles": "C[C@@H](c1ccc(O)cc1)c1nnc2ccc(Nc3nc4ccccc4s3)nn12", "note": "[Compound 499]", "Ki": "100 to 2000"}, {"smiles": "Cc1nnc(Nc2ccc3nnc([C@@H](C)c4ccc(O)cc4)n3n2)s1", "note": "[Compound 500]", "Ki": "> 2000"}, {"smiles": "C[C@@H](c1ccc(O)cc1)c1nnc2ccc(Cl)nn12", "note": "[Compound 501]", "Ki": "100 to 2000"}, {"smiles": "O=c1ccc(Cc2nnc3ccc(Nc4cccc(Cl)c4)nn23)c[nH]1", "note": "[Compound 502]", "Ki": "< 100"}, {"smiles": "Clc1cccc(Nc2ccc3nnc(COc4ccc5c(c4)OCO5)n3n2)c1", "note": "[Compound 503]", "Ki": "> 2000"}, {"smiles": "Clc1cccc(Nc2ccc3nnc(Cc4cc5c(cc4Cl)OCO5)n3n2)c1", "note": "[Compound 504]", "Ki": "100 to 2000"}, {"smiles": "C[C@@H](c1ccc(O)cc1)c1nnc2ccc(Nc3ccnn3C)nn12", "note": "[Compound 505]", "Ki": "100 to 2000"}, {"smiles": "C[C@@H](c1ccc(O)cc1)c1nnc2ccc(Nc3ccnc(Cl)c3)nn12", "note": "[Compound 506]", "Ki": "< 100"}, {"smiles": "C[C@@H](c1ccc(O)cc1)c1nnc2ccc(Sc3nc4ccccc4[nH]3)nn12", "note": "[Compound 507]", "Ki": "< 100"}, {"smiles": "C[C@@H](c1ccc(O)cc1)c1nnc2ccc(Sc3nc[nH]n3)nn12", "note": "[Compound 508]", "Ki": "100 to 2000"}, {"smiles": "C[C@@H](c1ccc(O)cc1)c1nnc2ccc(Nc3cc(Cl)cnc3Cl)nn12", "note": "[Compound 509]", "Ki": "< 100"}, {"smiles": "C[C@@H](c1ccc(O)cc1)c1nnc2ccc(Nc3ccc(F)nc3)nn12", "note": "[Compound 510]", "Ki": "100 to 2000"}, {"smiles": "C[C@@H](c1ccc(O)cc1)c1nnc2ccc(Sc3ncc[nH]3)nn12", "note": "[Compound 511]", "Ki": "> 2000"}, {"smiles": "C[C@@H](c1ccc(O)cc1)c1nnc2ccc(Nc3ccc(Cl)nn3)nn12", "note": "[Compound 512]", "Ki": "100 to 2000"}, {"smiles": "CCOC(=O)c1sc(Nc2ccc3nnc([C@@H](C)c4ccc(O)cc4)n3n2)nc1C", "note": "[Compound 513]", "Ki": "100 to 2000"}, {"smiles": "C[C@@H](c1ccc(O)cc1)c1nnc2ccc(Nc3ccc(Cl)nc3)nn12", "note": "[Compound 514]", "Ki": "100 to 2000"}, {"smiles": "CCc1nnc(Nc2ccc3nnc([C@@H](C)c4ccc(O)cc4)n3n2)s1", "note": "[Compound 515]", "Ki": "100 to 2000"}, {"smiles": "Oc1c(Cc2nnc3ccc(Nc4cccc(Cl)c4)nn23)cnc2ncnn12", "note": "[Compound 516]", "Ki": "> 2000"}, {"smiles": "Clc1cccc(Nc2ccc3nnc(Cn4cncn4)n3n2)c1", "note": "[Compound 517]", "Ki": "100 to 2000"}, {"smiles": "Clc1cccc(Nc2ccc3nnc(CNc4cccc5ncccc45)n3n2)c1", "note": "[Compound 518]", "Ki": "< 100"}, {"smiles": "Clc1cccc(Nc2ccc3nnc(CNc4n[nH]c5ncccc45)n3n2)c1", "note": "[Compound 519]", "Ki": "< 100"}, {"smiles": "Oc1ccc(C2(c3nnc4ccc(Nc5ccnc(Cl)c5)nn34)CC2)cc1", "note": "[Compound 520]", "Ki": "< 100"}, {"smiles": "C[C@@H](c1ccc(O)cc1)c1nnc2ccc(NC3CCCC(C(F)(F)F)C3)nn12", "note": "(some centres unmarked) [Compound 521]", "Ki": "< 100"}, {"smiles": "Oc1ccc(Cc2nnc3n2N=C(c2ccccc2)CS3)cc1", "note": "[Compound 522]", "Ki": "< 100"}, {"smiles": "c1ccc(C2=Nn3c(Cc4ccc5c(c4)OCO5)nnc3SC2)cc1", "note": "[Compound 523]", "Ki": "100 to 2000"}, {"smiles": "Oc1ccc(Cc2nnc3n2N=C(c2c[nH]c4ncccc24)CS3)cc1", "note": "[Compound 524]", "Ki": "100 to 2000"}, {"smiles": "CC(c1ccc(O)cc1)c1nnc2n1N=C(c1ccccc1)CS2", "note": "(centres unmarked) [Compound 525]", "Ki": "< 100"}, {"smiles": "CS(=O)(=O)Nc1cccc(Cc2nnc3n2N=C(c2ccccc2)CS3)c1", "note": "[Compound 526]", "Ki": "> 2000"}, {"smiles": "Fc1ccc(Cc2nnc3n2N=C(c2ccccc2)CS3)cc1", "note": "[Compound 527]", "Ki": "> 2000"}, {"smiles": "CS(=O)(=O)c1ccc(Cc2nnc3n2N=C(c2ccccc2)CS3)cc1", "note": "[Compound 528]", "Ki": "> 2000"}, {"smiles": "c1ccc(C2=Nn3c(Cc4ccncc4)nnc3SC2)cc1", "note": "[Compound 529]", "Ki": "> 2000"}, {"smiles": "COc1ccc(Cc2nnc3n2N=C(c2ccccc2)CS3)cc1", "note": "[Compound 530]", "Ki": "100 to 2000"}, {"smiles": "COc1ccc(Cc2nnc3n2N=C(c2ccccc2)CS3)cc1F", "note": "[Compound 531]", "Ki": "> 2000"}, {"smiles": "CC(C)C[C@H](NC(=O)OCc1ccccc1)C1=Nn2c(Cc3ccc(O)cc3)nnc2SC1", "note": "[Compound 532]", "Ki": "> 2000"}, {"smiles": "Oc1ccc(Cc2nnc3n2N=C(c2ccc4c(c2)OCCO4)CS3)cc1", "note": "[Compound 533]", "Ki": "< 100"}, {"smiles": "CCOC(=O)C1=Nn2c(Cc3ccc(O)cc3)nnc2SC1", "note": "[Compound 534]", "Ki": "100 to 2000"}, {"smiles": "O=C1COc2ccc(C3=Nn4c(Cc5ccc(O)cc5)nnc4SC3)cc2N1", "note": "[Compound 535]", "Ki": "100 to 2000"}, {"smiles": "CC1=Nn2c(Cc3ccc(O)cc3)nnc2SC1C", "note": "(centres unmarked) [Compound 536]", "Ki": "> 2000"}, {"smiles": "O=C(N[C@@H](Cc1ccccc1)C1=Nn2c(Cc3ccc(O)cc3)nnc2SC1)OCc1ccccc1", "note": "[Compound 537]", "Ki": "> 2000"}, {"smiles": "Oc1ccc(Cc2nnc3n2N=C(c2ccncc2)CS3)cc1", "note": "[Compound 538]", "Ki": "100 to 2000"}, {"smiles": "O=C(O)Cc1ccc(C2=Nn3c(Cc4ccc(O)cc4)nnc3SC2)s1", "note": "[Compound 539]", "Ki": "100 to 2000"}, {"smiles": "Oc1ccc(Cc2nnc3n2N=C(c2ccc4c(c2)OCO4)CS3)cc1", "note": "[Compound 540]", "Ki": "< 100"}, {"smiles": "Oc1ccc(Cc2nnc3n2N=C(c2ccsc2)CS3)cc1", "note": "[Compound 541]", "Ki": "< 100"}, {"smiles": "CC1=Nn2c(Cc3ccc(O)cc3)nnc2SC1", "note": "[Compound 542]", "Ki": "100 to 2000"}, {"smiles": "Oc1ccc(Cc2nnc3n2N=C(c2cccs2)CS3)cc1", "note": "[Compound 543]", "Ki": "< 100"}, {"smiles": "c1csc(C2=Nn3c(Cc4ccc5c(c4)OCO5)nnc3SC2)c1", "note": "[Compound 544]", "Ki": "< 100"}, {"smiles": "c1csc(C2=Nn3c(Cc4ccncc4)nnc3SC2)c1", "note": "[Compound 545]", "Ki": "> 2000"}, {"smiles": "Fc1ccc(Cc2nnc3n2N=C(c2cccs2)CS3)cc1", "note": "[Compound 546]", "Ki": "100 to 2000"}, {"smiles": "COc1ccc(Cc2nnc3n2N=C(c2cccs2)CS3)cc1", "note": "[Compound 547]", "Ki": "100 to 2000"}]}]}
